Experimental data: patent publication US20230203095A1, “BIOLOGICAL PEPTIDE FOR TREATING LUNG DISEASES AND APPLICATION THEREOF” (SHANGHAI INSTITUTE OF PHARMACEUTICAL INDUSTRY CO., LTD., priority 2019, published 2023)
“And” between values parts separate entries of the source, which are not always exact repeats. Identical values can stand only once. Like-named read-outs stand apart in the source and are kept apart here. Peptide text beside a SMILES is read from it. * marks the point of attachment. X1 = CC(=O)N[C@H]1C(*)O[C@H](CO)[C@@H](O)[C@@H]1O

Experiments:
[1] = Stability of each 7-peptide compound in rat whole blood; type: in vitro ADME; details: for recovery: rat whole blood, 37° C., 1000 ng/mL, read-out: Recovery rate (%) M±SD
Experimental: Preparation of the test product: SP and SIPI-D00 were dissolved and diluted with an appropriate amount of 50% acetonitrile water containing 0.1% formic acid to obtain a working solution with a concentration of 200 µg/mL.
• 1) Fresh rat whole blood was added to the EP tube, and shaken gently to mix well; • 2) The EP tube was pre-incubated in a 37° C. water bath for 5 minutes; • 3) Each compound was added to start the reaction and continued to incubate at 37° C.; • 4) 50 µL sample was taken from the sample tube at 0, 2 min, 5 min, 10 min, 30 min, and 60 min, respectively, into the stop tube, 50 µL of ice-cold 7% perchloric acid was added, and shaken to stop the reaction; • 5) Sample was centrifuged at 13000 r/min for 10 min, 75 µL supernatant was aspirated, 60 µL1.25% ammonia water was added and mixed well. After filtered with […] microporous membrane, 20 µL sample was taken for LC-MS/MS analysis.

[2] = Plasma drug concentrations and pharmacokinetics after a single intravenous or subcutaneous injection of SIPI-G9 in SD rats; details: for level at 3 h: 180 min; for level at 4 h: 240 min; for clearance: CL; for MRT last: MRT0-t
Experimental: Routes: single back subcutaneous injection and single tail vein injection;
Orbital blood was collected at different time points before and after administration. […] High concentration samples were diluted with blank plasma.
Column: SHIM-PACK GISS C18 (2.1 × 100 mm, 1.9 µm); injection volume: 20 µL; mobile phase: phase A: 0.2% acetic acid in water; phase B: methanol, gradient elution (see Table 16 for details);
The ion source is electrospray ionization source (ESI); the drying gas (N2) temperature is 550° C.; the electrospray voltage is 5500 V; the detection method is positive ion detection; the scanning method is the selective reaction monitoring (MRM) method, and the scanning time is 0.15 s.
50 µL plasma was taken and 5 µL internal standard solution (DX07 (His-Leu-Glu-Thr-Glu-Leu-His) 100 ng/mL) was added. After that, 150 µL of methanol was added to precipitate proteins, then centrifuged at 13,000 rpm for 5 min, and 160 µL supernatant was taken and dried with 40° C. N2, then reconstituted with 75 µL of 0.1% formic acid aqueous solution.
Pharmacokinetic parameters were calculated using the non-compartmental model of DAS 2.0 software. Both Cmax and Tmax are measured values; AUC, T½, CL and Vz are calculated by DAS 2.0.

[3] = SIPI-G9 1 mg/kg i.v., SD rats, individual rats, 1 mg/kg
[4] = male, SD, rat, plasma, sc, 5 mg/kg, Plasma G-9 concentration, Mean, SIPI-G9 5 mg/kg s.c., SD rats, n=3
[5] = male, SD, rat, plasma, sc, 5 mg/kg, Plasma G-9 concentration, SIPI-G9 5 mg/kg single subcutaneous injection, SD rats, individual rats
[6] = rat, in vivo, iv, 1 mg/kg, Mean
[7] = rat, in vivo, sc, 5 mg/kg, Mean

recovery ([1]; incubation time 0 min): 100% | recovery ([1]; incubation time 2 min): 98.8 ± 4.6% | recovery ([1]; incubation time 5 min): 98.3 ± 2.9% | recovery ([1]; incubation time 10 min): 96.3 ± 4.9% | recovery ([1]; incubation time 30 min): 95.9 ± 1% | recovery ([1]; incubation time 60 min): > 90% | T1/2 [2, 3]: 8.50 min and 7.50 min | Vd [2, 3]: 2.23 L/kg and 1.29 L/kg | Plasma G-9 concentration ([2]; SIPI-G9 1 mg/kg single intravenous injection, SD rats, 3 min, individual rats, 1 mg/kg): 714 ng/mL and 573 ng/mL and 737 ng/mL | Plasma G-9 concentration ([2]; SIPI-G9 1 mg/kg single intravenous injection, SD rats, 6 min, individual rats, 1 mg/kg): 265 ng/mL and 231 ng/mL and 295 ng/mL | Plasma G-9 concentration ([2]; SIPI-G9 1 mg/kg single intravenous injection, SD rats, 10 min, individual rats, 1 mg/kg): 124 ng/mL and 120 ng/mL and 377 ng/mL | Plasma G-9 concentration ([2]; SIPI-G9 1 mg/kg single intravenous injection, SD rats, 20 min, individual rats, 1 mg/kg): 33.5 ng/mL and 31.6 ng/mL and 80.0 ng/mL | Plasma G-9 concentration ([2]; SIPI-G9 1 mg/kg single intravenous injection, SD rats, 40 min, individual rats, 1 mg/kg): 6.09 ng/mL and 5.68 ng/mL and 6.78 ng/mL | Plasma G-9 concentration ([2]; SIPI-G9 1 mg/kg single intravenous injection, SD rats, 60 min, individual rats, 1 mg/kg): 1.33 ng/mL and 1.21 ng/mL and 2.00 ng/mL | Plasma G-9 concentration ([2]; SIPI-G9 5 mg/kg single subcutaneous injection, SD rats, 0 min, individual rats): 0 ng/mL | Plasma G-9 concentration ([2]; SIPI-G9 5 mg/kg single subcutaneous injection, SD rats, 40 min, individual rats, 5 mg/kg): 229 ng/mL | Plasma G-9 concentration ([2]; SIPI-G9 5 mg/kg single subcutaneous injection, SD rats, 120 min, individual rats, 5 mg/kg): 28.5 ng/mL and 33.5 ng/mL and 24.5 ng/mL | AUC(0-t) ([2]; male, SD, rat, in vivo, iv, 1 mg/kg): 114 ng·h/mL | AUC(0-t) ([2]; male, SD, rat, in vivo, sc, 5 mg/kg): 490 ng·h/mL | level at 0.05 h ([2]; male, SD, rat, plasma, iv, 1 mg/kg, Plasma G-9 concentration, Mean, SIPI-G9 1 mg/kg i.v., SD rats, 3 min, n=3): 675 ng/mL | level at 0.1 h ([2]; male, SD, rat, plasma, iv, 1 mg/kg, Plasma G-9 concentration, Mean, SIPI-G9 1 mg/kg i.v., SD rats, 6 min, n=3): 264 ng/mL | level at 10 min ([2]; male, SD, rat, plasma, iv, 1 mg/kg, Plasma G-9 concentration, Mean, SIPI-G9 1 mg/kg i.v., SD rats, 10 min, n=3): 207 ng/mL | level at 20 min ([2]; male, SD, rat, plasma, iv, 1 mg/kg, Plasma G-9 concentration, Mean, SIPI-G9 1 mg/kg i.v., SD rats, 20 min, n=3): 48.4 ng/mL | level at 40 min ([2]; male, SD, rat, plasma, iv, 1 mg/kg, Plasma G-9 concentration, Mean, SIPI-G9 1 mg/kg i.v., SD rats, 40 min, n=3): 6.18 ng/mL | level at 1 h ([2]; male, SD, rat, plasma, iv, 1 mg/kg, Plasma G-9 concentration, Mean, SIPI-G9 1 mg/kg i.v., SD rats, 60 min, n=3): 1.51 ng/mL | level at 0.05 h ([2]; male, SD, rat, plasma, sc, 5 mg/kg, Plasma G-9 concentration, Mean, SIPI-G9 5 mg/kg s.c., SD rats, 3 min, n=3): 699 ng/mL | level at 0.1 h ([2]; male, SD, rat, plasma, sc, 5 mg/kg, Plasma G-9 concentration, Mean, SIPI-G9 5 mg/kg s.c., SD rats, 6 min, n=3): 1020 ng/mL | level at 10 min ([2]; male, SD, rat, plasma, sc, 5 mg/kg, Plasma G-9 concentration, Mean, SIPI-G9 5 mg/kg s.c., SD rats, 10 min, n=3): 796 ng/mL | level at 20 min ([2]; male, SD, rat, plasma, sc, 5 mg/kg, Plasma G-9 concentration, Mean, SIPI-G9 5 mg/kg s.c., SD rats, 20 min, n=3): 408 ng/mL | level at 40 min ([2]; male, SD, rat, plasma, sc, 5 mg/kg, Plasma G-9 concentration, Mean, SIPI-G9 5 mg/kg s.c., SD rats, 40 min, n=3): 228 ng/mL | level at 1 h ([2]; male, SD, rat, plasma, sc, 5 mg/kg, Plasma G-9 concentration, Mean, SIPI-G9 5 mg/kg s.c., SD rats, 60 min, n=3): 131 ng/mL | level at 2 h ([2]; male, SD, rat, plasma, sc, 5 mg/kg, Plasma G-9 concentration, Mean, SIPI-G9 5 mg/kg s.c., SD rats, 120 min, n=3): 28.8 ng/mL | level at 3 h [2, 4]: 6.01 ng/mL | level at 4 h [2, 4]: 0.708 ng/mL | level at 0.05 h ([2]; male, SD, rat, plasma, sc, 5 mg/kg, Plasma G-9 concentration, SIPI-G9 5 mg/kg single subcutaneous injection, SD rats, 3 min, individual rats): 758 ng/mL | level at 0.1 h ([2]; male, SD, rat, plasma, sc, 5 mg/kg, Plasma G-9 concentration, SIPI-G9 5 mg/kg single subcutaneous injection, SD rats, 6 min, individual rats): 904 ng/mL | level at 10 min ([2]; male, SD, rat, plasma, sc, 5 mg/kg, Plasma G-9 concentration, SIPI-G9 5 mg/kg single subcutaneous injection, SD rats, 10 min, individual rats): 633 ng/mL | level at 20 min ([2]; male, SD, rat, plasma, sc, 5 mg/kg, Plasma G-9 concentration, SIPI-G9 5 mg/kg single subcutaneous injection, SD rats, 20 min, individual rats): 324 ng/mL | level at 40 min ([2]; male, SD, rat, plasma, sc, 5 mg/kg, Plasma G-9 concentration, SIPI-G9 5 mg/kg single subcutaneous injection, SD rats, 40 min, individual rats): 230 ng/mL | level at 1 h ([2]; male, SD, rat, plasma, sc, 5 mg/kg, Plasma G-9 concentration, SIPI-G9 5 mg/kg single subcutaneous injection, SD rats, 60 min, individual rats): 118 ng/mL | level at 3 h [2, 5]: 6.6 ng/mL | level at 4 h [2, 5]: 0.807 ng/mL | Fa (absolute bioavailability) ([2]; rat, in vivo): 96.6% | bioavailability ([2]; rat, in vivo, Fa (absolute bioavailability)): 79.2% | clearance ([2]; rat, in vivo, iv, 1 mg/kg): 151 mL/min/kg | clearance [2, 6]: 151 mL/min/kg | Cmax ([2]; rat, in vivo, iv, 1 mg/kg): 714 ng/mL | Cmax [2, 6]: 675 ng/mL | MRT last ([2]; rat, in vivo, iv, 1 mg/kg): 5.49 min | MRT last [2, 6]: 6.63 min | half-life ([2]; rat, in vivo, iv, 1 mg/kg, T1/2, Mean, SIPI-G9 1 mg/kg i.v., SD rats, n=3): 8.2 min | half-life ([2]; rat, in vivo, iv, 1 mg/kg, T1/2, SIPI-G9 1 mg/kg i.v., SD rats, individual rats): 8.59 min | Tmax ([2]; rat, in vivo, iv, 1 mg/kg): 3 min | Tmax [2, 6]: 3 min | Vd ([2]; rat, in vivo, iv, 1 mg/kg, Vd, Mean, SIPI-G9 1 mg/kg i.v., SD rats, n=3): 1.8 L/kg | Vd ([2]; rat, in vivo, iv, 1 mg/kg, Vd, SIPI-G9 1 mg/kg i.v., SD rats, individual rats): 1.87 L/kg | Cmax ([2]; rat, in vivo, sc, 5 mg/kg): 904 ng/mL | Cmax [2, 7]: 1020 ng/mL | MRT last ([2]; rat, in vivo, sc, 5 mg/kg): 34.3 min | MRT last [2, 7]: 33.9 min | Tmax ([2]; rat, in vivo, sc, 5 mg/kg): 6 min | Tmax [2, 7]: 7 min
Structure (SMILES): CC(=O)N[C@H]1C(OC[C@H](NC(=O)[C@@H](NC(=O)[C@H](Cc2ccc(O)cc2)NC(=O)[C@@H](NC(=O)[C@H](CCC(N)=O)NC(=O)CN)[C@@H](C)OC2O[C@H](CO)[C@@H](O)[C@H](O)[C@H]2NC(C)=O)[C@@H](C)O)C(=O)NCC(=O)O)O[C@H](CO)[C@@H](O)[C@@H]1O (stereo partly drawn) [SIPI-G9, GQT(Glc)YTS(Glc)G] (H-GQT(X1)YTS(X1)G-OH)
stability in whole blood ([1]; compared with SP peptide): significantly higher than that of SP peptide
